We go through 14 compounds from patent publication US8815903B2, “Indole derivative and pharmacologically acceptable salt thereof” (Kissei Pharmaceutical Co., Ltd., priority 2011, dated 2014).

Experiment [1] addresses T1, rat EP1 receptor (Rattus norvegicus, UniProt P70597).
T1 construct: expressed in transfected cells
T1 sequence (P70597 1-405): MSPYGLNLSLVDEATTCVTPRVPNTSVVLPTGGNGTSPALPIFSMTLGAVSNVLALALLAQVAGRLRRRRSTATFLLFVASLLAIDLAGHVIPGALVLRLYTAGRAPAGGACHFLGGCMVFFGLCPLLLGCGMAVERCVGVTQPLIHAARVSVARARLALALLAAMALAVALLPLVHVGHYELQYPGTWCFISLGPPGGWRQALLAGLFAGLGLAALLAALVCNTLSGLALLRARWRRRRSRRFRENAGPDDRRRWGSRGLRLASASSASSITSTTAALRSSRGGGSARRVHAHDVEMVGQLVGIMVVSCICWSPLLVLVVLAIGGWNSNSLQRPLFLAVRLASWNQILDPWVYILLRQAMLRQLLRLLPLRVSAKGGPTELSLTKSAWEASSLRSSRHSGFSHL
The experiment can be described thus: Test for confirmation of EP1 receptor antagonism (inhibition of PGE2-induced increase in intracellular calcium concentration). The experiment is classed as cell-based. To be noted: rat EP1 receptor-expressing COS-1 cells; prostaglandin E2 10 nM; fluorescent calcium indicator, FDSS 7000. Here is the method: Test for Confirmation of EP1 Receptor Antagonism
(1) Preparation of Rat EP1 Expression Vector
Using Rat Kidney BD Marathon-Ready cDNA (Nippon Becton Dickinson Company, Ltd.) as a template, a forward primer shown in (SEQ ID NO:1), and a reverse primer shown in (SEQ ID NO:2), a first run of PCR was carried out using KOD-Plus-Ver 2.0 (Toyobo Co., Ltd.). Further, using this amplification product as a template, a forward primer shown in (SEQ ID NO:3), and a reverse primer shown in (SEQ ID NO:4), a second run of PCR was carried out in the same manner. The amplification product obtained by the second run of PCR was incorporated into a vector (pcDNA3.1 D/V5-His-TOPO (registered trademark), Invitrogen Japan K. K.). By a conventional method, the vector containing this amplification product was introduced to E. coli (One Shot TOP 10 Competent Cells, Invitrogen Corporation) to transform. This transformed E. coli was cultured in an LB agar medium for one day. After the culture, colonies were selected and cultured in an LB liquid medium containing 50 μg/mL of ampicillin. After the culture, the vector was purified using a QIAprep Spin Miniprep Kit (Qiagen K. K.). The base sequence of the insertion site of this vector (SEQ ID NO:5) was compared with the rat EP1 base sequence (Ptger1) registered as Accession No. NM_013100 in publicly-known database (NCBI), and as a result, they all matched except for a single base. Further, the amino acid sequence translated by the base sequence completely matched the amino acid sequence of the rat EP1 receptor registered as an NCBI Accession No. NP_037232. Therefore, it was confirmed that the cloned gene sequence was a base sequence of the rat EP1 receptor and the obtained amino acid sequence was that of the rat EP1 receptor. The pcDNA3.1 D/V5-His-TOPO (registered trademark) to which the nucleic acid shown in (SEQ ID NO:5) had been inserted was taken as a rat EP1-expressing vector.
(2) Preparation of Rat EP1 Receptor-Expressing Cells
COS-1 cells (Dainippon Sumitomo Pharma Co., Ltd.) were cultured until they reached confluence in an incubator at 37° C. under a 5% CO2 gas condition, using a D-MEM liquid medium (high glucose and L-glutamine contained, Invitrogen Corporation) to which a penicillin-streptomycin solution (Invitrogen Corporation, final concentration: 100 U/mL as benzylpenicillin; 100 μg/mL as streptomycin) as an antibiotic, MEM nonessential amino acids (Invitrogen Corporation, final concentration: 0.1 mM), and fetal calf serum (Sanko Junyaku Co., Ltd., final concentration: 10%) were added.
The cells that had reached confluence were stripped with 0.05% trypsin/0.53 mM EDTA.4Na, and resuspended in a D-MEM liquid medium (high glucose and L-glutamine contained, Invitrogen Corporation) to which an MEM nonessential amino acid (final concentration: 0.1 mM) and fetal calf serum (final concentration: 10%) were added. In each well of a Poly D-lysine-coated 96-well microplate (BD BioCoat (registered trademark), Nippon Becton Dickinson Company, Ltd.), this resuspended cell suspension culture was prepared to be 5×10^4 cells/well in 100 μL of the liquid medium, and 100 μL of the cell suspension was seeded on each well. After seeding, the cells were cultured in an incubator at 37° C. under a 5% CO2 gas condition. At a point when the cells for introduction of a rat EP1-expressing vector were adhered (about 2 hours after seeding), introduction of the rat EP1-expressing vector was carried out in the following order.
For introduction of the rat EP1-expressing vector, Lipofectamine 2000 (Invitrogen Japan K. K.) was used. The rat EP1-expressing vector was diluted with OPTI-MEM (registered trademark) I Reduced-Serum Medium (Invitrogen Japan K. K.) to 200 ng/25 μL/well, and at the same time, Lipofectamine 2000 (Invitrogen Japan K. K.) was also diluted with OPTI-MEM (registered trademark) I Reduced-Serum Medium (Invitrogen Japan K. K.) to 0.5 μL/25 μL/well, followed by incubation at room temperature for 5 minutes. […]

Experiment [2] concerns Sulprostone-Induced Bladder Contraction. The experiment can be described thus: Inhibitory effect of compound on sulprostone-induced bladder contraction. The experiment is classed as in vivo, rat. To be noted: female SD rats, urethane anesthesia, sulprostone 0.3 mg/kg s.c., test agent 1.0 mg/kg intravenously; for Bladder Contraction Inhibition Rate 15 minutes: 15 minutes from administration; for Bladder Contraction Inhibition Rate 60 minutes: 60 minutes from administration. An excerpt: Inhibitory Effect of Compound on Sulprostone-Induced Bladder Contraction
Female SD rats were used. Under urethane anesthesia (1.25 g/kg, administered subcutaneously), a tracheal cannula (Size 8, HIBIKI) and a femoral vein cannula for administration (23 G needle-equipped PESO) were inserted thereinto. The bladder cannula (PESO) was inserted from the bladder apex. The bladder cannula was connected to a three-way stopcock, and then, one was connected to a pressure transducer and the other was connected to a syringe filled with saline. Saline was injected to the bladder at an injection rate of 3.6 mL/hour and the bladder contraction pressure was recorded at the time of injection with a recorder (RECTI-HORITZ-8K, NEC Corporation). After 10 minutes from stabilization of the bladder contraction pressure during urination, sulprostone was administered subcutaneously (0.3 mg/kg). Then, at the time point when the bladder contraction pressure became constant, a test agent was administered intravenously (1.0 mg/kg). An average bladder contraction pressure during the 10 minute period before administration of sulprostone was taken as a baseline (0%). Further, an average bladder contraction pressure during the 10 minute period directly before administration of the test agent was taken as a maximum bladder contraction pressure (100%). The average bladder contraction pressures were measured during 5 minutes before and after at 15 minutes and 60 minutes from administration of the test agent. The ratio of this measured value to the maximum bladder contraction pressure was calculated by the following equation and taken as an average bladder contraction rate after administration of the test agent: (Average Bladder Contraction Rate after Administration of Test Agent (%))=[(Average Bladder Contraction Pressure after Administration of Test Agent)/(Maximum Bladder Contraction Pressure)]×100 EQUATION 1
In addition, the difference between the maximum bladder contraction rate (100%) and the average bladder contraction rate (%) after administration of the test agent was calculated by the following equation and taken as a bladder contraction inhibition rate of the test agent: (Bladder Contraction Inhibition Rate)=100%−(Average Bladder Contraction Rate after Administration of Test Agent (%)) EQUATION 2

Structures are written as SMILES.

In the case of `CCS(=O)(=O)NC(=O)c1cccc(Cc2c(-c3ccsc3)[nH]c3cc(OC)ccc23)n1` [Example 3-35, N-ethanesulfonyl-6-(6-methoxy-2-thiophen-3-yl-1H-indol-3-ylmethyl)pyridine-2-carboxamide], the 50% inhibitory concentration (IC50) in experiment [1] was 46 nM. For the same compound, in experiment [2], the “Bladder Contraction Inhibition Rate 15 minutes” value is reported as 45.9% and the “Bladder Contraction Inhibition Rate 60 minutes” value is on record as 45.1%.
Consider `c1ccc(-c2[nH]c3cc(C4CC4)ccc3c2Cc2cccc(-c3nnn[nH]3)n2)cc1` [Example 5-1, 6-Cyclopropyl-2-phenyl-3-[6-(1H-tetrazol-5-yl)pyridin-2-ylmethyl]-1H-indole], for which the IC50 in experiment [1] came to 61 nM. Besides, in experiment [2], the “Bladder Contraction Inhibition Rate 15 minutes” value came to 82.8% and the “Bladder Contraction Inhibition Rate 60 minutes” value is 91.6%.
In the case of `COc1ccc2c(Cc3cccc(-c4nnn[nH]4)n3)c(-c3ccccc3)[nH]c2c1` [Example 5-2, 6-methoxy-2-phenyl-3-[6-(1H-tetrazol-5-yl)pyridin-2-ylmethyl]-1H-indole], the half-inhibitory concentration (IC50) in experiment [1] was determined as 4.7 nM. In addition, in experiment [2], the “Bladder Contraction Inhibition Rate 15 minutes” value is recorded as 88.2% and the “Bladder Contraction Inhibition Rate 60 minutes” value stood at 76.2%.
The like results for `Cc1ccc2c(Cc3cccc(-c4nnn[nH]4)n3)c(-c3ccccc3)[nH]c2c1` [Example 5-3, 6-methyl-2-phenyl-3-[6-(1H-tetrazol-5-yl)pyridin-2-ylmethyl]-1H-indole] were, in that order, 15 nM, 78.2% and 75.8%.
For `COc1ccc2c(Cc3cccc(-c4nnn[nH]4)n3)c(C(C)(C)C)[nH]c2c1` [Example 5-7, 2-tert-butyl-6-methoxy-3-[6-(1H-tetrazol-5-yl)pyridin-2-ylmethyl]-1H-indole], in that order: 20 nM, 74.8% and 71.0%.
The like results for `COc1ccc2c(Cc3cccc(-c4nnn[nH]4)n3)c(-c3ccoc3)[nH]c2c1` [Example 5-11, 2-furan-3-yl-6-methoxy-3-[6-(1H-tetrazol-5-yl)pyridin-2-ylmethyl]-1H-indole] were, in that order, 5.7 nM, 99.0% and 99.8%.
As for `COc1ccc2c(Cc3cccc(-c4noc(=O)[nH]4)n3)c(-c3ccccc3)[nH]c2c1` [Example 7-1, 3-[6-(6-Methoxy-2-phenyl-1H-indol-3-ylmethyl)pyridin-2-yl]-4,5-dihydro-1,2,4-oxadiazol-5-one], in experiment [1], the IC50 came out at 26 nM. Also, in experiment [2], the “Bladder Contraction Inhibition Rate 15 minutes” value turned out to be 66.3% and the “Bladder Contraction Inhibition Rate 60 minutes” value is 83.0%.
Turning to `COc1ccc2c(Cc3cccc(C(=O)NC#N)n3)c(-c3ccccc3)[nH]c2c1` [Example 10, N-Cyano-6-(6-methoxy-2-phenyl-1H-indol-3-ylmethyl)pyridine-2-carboxamide], the IC50 in experiment [1] is 26 nM. In addition, in experiment [2], the “Bladder Contraction Inhibition Rate 15 minutes” value amounted to 82.9% and the “Bladder Contraction Inhibition Rate 60 minutes” value worked out at 90.7%.
The like results for `Cc1ccc2c(Cc3cccc(-c4noc(=O)[nH]4)n3)c(-c3ccoc3)[nH]c2c1` [Example 12-11] were, in that order, 37 nM, 74.9% and 46.7%.
For `O=c1[nH]c(-c2cccc(Cc3c(-c4ccoc4)[nH]c4cc(C5CC5)ccc34)n2)no1` [Example 12-13], the IC50 in experiment [1] came out at 26 nM. For the same compound, in experiment [2], the “Bladder Contraction Inhibition Rate 15 minutes” value is 72.9% and the “Bladder Contraction Inhibition Rate 60 minutes” value turned out to be 96.0%.
For `COc1ccc2c(Cc3cccc(-c4noc(=O)[nH]4)n3)c(C3(C)CC3)[nH]c2c1` [Example 12-14], in that order: 39 nM, 80.5% and 59.1%.
For `COc1ccc2c(Cc3cccc(-c4nnn[nH]4)n3)c(C3(C)CC3)[nH]c2c1` [Example 17-11, 6-methoxy-2-(1-methylcyclopropyl)-3-[6-(1H-tetrazol-5-yl)pyridin-2-ylmethyl]-1H-indole], in that order: 11 nM, 92.8% and 100.9%.
Regarding `Cc1ccc2c(Cc3cccc(-c4nnn[nH]4)n3)c(C3(C)CC3)[nH]c2c1` [Example 17-12, 6-methyl-2-(1-methylcyclopropyl)-3-[6-(1H-tetrazol-5-yl)pyridin-2-ylmethyl]-1H-indole], the half-inhibitory concentration (IC50) in experiment [1] was determined as 14 nM. Moreover, in experiment [2], the “Bladder Contraction Inhibition Rate 15 minutes” value was determined as 81.9% and the “Bladder Contraction Inhibition Rate 60 minutes” value turned out to be 74.7%.
On to `COc1cc2[nH]c(C3(C)CC3)c(Cc3cccc(-c4nnn[nH]4)n3)c2cc1Cl` [Example 20-3, 5-chloro-6-methoxy-2-(1-methylcyclopropyl)-3-[6-(1H-tetrazol-5-yl)pyridin-2-ylmethyl]-1H-indole], for which, in experiment [1], the IC50 was 27 nM. In experiment [2], the “Bladder Contraction Inhibition Rate 15 minutes” value worked out at 71.7% and the “Bladder Contraction Inhibition Rate 60 minutes” value is on record as 50.0%.

The term IC50 denotes the point on the concentration scale where inhibition reaches its midpoint.
